Laboratory results: patent US20220025324A1, “METHODS OF PRODUCING VENOUS ANGIOBLASTS AND SINUSOIDAL ENDOTHELIAL CELL-LIKE CELLS AND COMPOSITIONS THEREOF” (University Health Network, priority 2018, published 2022)

Assays:
Assay type in all cases: cell-based, human
arterial and venous ECs = test: IOX2 treatment of arterial and venous LSEC-LCs (HIF1a signalling), flow cytometry and qRT-PCR
Excerpt: FIG. 6: CD32B Expression is Regulated by Hypoxia/HIFla Signalling. […] (6B) Representative flow cytometric analysis of normoxic cultured CD31+ arterial LSEC-LCs treated with DMSO or IOX2 at increasing doses (days 12-16). (6C) qRT-PCR analysis of LSEC markers in day 16 arterial and venous LSEC-LCs cultured under normoxia conditions treated with DMSO or increasing IOX2 doses for 4 days (ANOVA with Bonferroni test, *p<0.05, comparing arterial and venous cells at give IOX2 doses). (6D) Representative flow cytometric analysis of day 16 arterial and venous CD31+ LSEC-LCs cultured under normoxic and hypoxic conditions with and without IOX2. For all qRT-PCR analysis, expression values are normalized to levels of the housekeeping gene TBP. Error bars represent SEM.
To further investigate the role of oxygen on LSEC marker expression, we next interrogated the HIFI a signaling pathway as a probable mechanistic regulator of EC gene expression.

[1] = test system: venous angioblast-derived populations; test: LSEC-LC specification of venous angioblast-derived populations, RT-qPCR of LSEC associated markers; conditions: for expression of LSEC associated markers (LYVE1, STAB2, FCGR2B, F8): treated every 2 days for 4 days, RT-qPCR of bulk populations
Description: (3A) Schematic of EB-based hPSC-derived day 4 mesoderm differentiation to venous angioblasts, endothelial cells and LSEC-like cells (LSEC-LCs). […] For all qRT-PCR analysis, expression values are normalized to levels of the housekeeping gene TBP. Error bars represent SEM.
The resulting bulk populations were analyzed for expression of LSEC associated markers by RT-qPCR (FIG. 3B). Based on immunofluorescence (Strauss et al., 2017), flow cytometry (Fomin et al., 2013), bulk RNA-seq (Shahani et al., 2014), and recent single cell RNA-seq of human liver (MacParland et al., 2018) studies, human LSECs are distinguished by the co-expression of surface receptors, secreted proteins, and transcription factors including, LYVE1, CD14, CD32B (FCGR2B), CD36, CD54 (ICAM1), CD73, CD144, CD206 (MRC1), STAB1, STAB2, CLEC1B, PLAVP, GATA4 and F8 among others. Additionally, they express lower levels of canonical vascular markers such as CD31(PECAM1), CD34, CD105, CD309 (KDR), and VWF than portal arterial and venous endothelial cells. As a candidate marker set we focused the analysis on expression of scavenger receptors LYVE1, STAB2, CD32B/FCGR2B, F8, and VWF.

[2] = test system: tdRFP+ CD31+ CD32+ LYVE1+ cells; test: Fenestration by scanning electron microscopy after latrunculin A stimulation
Excerpt: FIG. 11: hPSC-Derived, In Vivo Matured LSECs are Fenestrated and Scavenge E. coli Bioparticles. (11A) Representative scanning electron microscopic images of primary human insitu vasculature imaged on the cut surface of fresh fixed liver tissue. LSECs, terminal portal venous endothelium and hepatic artery endothelium are shown for comparison of presence (indicated by white arrows) or absence of fenestrations. (11B) Representative scanning electron microscopic images of day 8 venous angioblast-derived, in vivo-matured, FACS-isolated based on indicated marker panels, overnight-cultured, treated for 30 minutes with or without fenestration (white arrows) stimulating 0.1 μg/ml Latrunculin A, fixed and processed for SEM. Imaging conditions and scale bar are indicated on each image. (11C) Quantification of fenestrated cells (>10 fenestrations arranged in a defined sieve plate cluster), endothelial cells (smooth edged cells with angiogenic lateral sprouts free from fibroblast-like adhesions), non-endothelial cells (fibroblast-like cells and rounded cells) was performed manually on the indicated numbers of cells from a total of at least 4 independent replicates pooling the data. Comparative in vitro derived cells including venous LSEC-LCs sorted as CD31+CD32+LVYE1+ on day 18, replated and cultured for an additional 10 days in addition to standard multi-donor derived HUVECs that were also quantified with and without Latrunculin A stimulation. (11D-11E) Quantification of fenestration size (longest diameter) in (11C) primary human LSECs in situ (black), venous angioblast-derived, in vivo matured and isolated LSECs with (white) and without (grey) latrunculin A stimulation. (11E) Quantification of surface area of LSECs covered by fenestrations before and after latrunculin stimulation. Error bars represent SEM. […]

[3] = test system: hPSC-derived day 4 mesoderm; test: VEGF and bFGF titration on day 4 mesoderm cultures, day 6 flow cytometry for CD34+ angioblast subpopulations
Description: (1A) Schematic of EB-based hPSC differentiation to venous angioblasts. (1B) Heatmap comparing kinetic gene expression profiles of day 0-8 bulk EB populations and day 8 CD34+ MACS enriched angioblasts following venous differentiation (day 4-8 10 ng/ml VEGFA, 30 ng/ml bFGF 10 μm GSI) as in (1A). High (dark) and low (light) expression levels are indicated for each gene. (1C) Representative flow cytometric analysis of day 4 KDR+CD56+CD235a-mesodermal cells and day 8 CD34+CD31 low venous angioblasts before and after MACS enrichment. […] For all qRT-PCR analysis, expression values are normalized to levels of the housekeeping gene TBP. Error bars represent SEM.
Previous work from our group (Ditadi et al., 2015) and others (Zhang et al., 2017), has shown that VEGF, bFGF, NOTCH signaling play a role in the specification of arterial and venous vascular fates in hPSC differentiation cultures. The effects of VEGF signaling in promoting arterial and venous development were assessed. To address this, different concentrations of VEGF (0 to 100 ng/ml) were added to day 4 cultures that contained low amounts of bFGF (5 ng/ml) and the resulting day 6 populations were analyzed for the presence of CD34^+CD31^+ vascular cells and CD184^+CD73^lowCD34^+ and CD184^−CD73^+CD34^+ populations that we have previously shown contain progenitors specified to arterial and venous fates respectively.

[4] = arterial and venous ECs, normoxia, 4 days, qRT-PCR
[5] = tdRFP+ CD31+ CD32+ LYVE1+ cells, 30 minutes stimulation
[6] = bFGF up to 30 ng/ml with VEGF 100 ng/ml, days 4-6

For `O=C(O)CNC(=O)c1c(O)c2ccccc2n(Cc2ccccc2)c1=O` [IOX2], which “conversion of CD31+ ECs to LYVE1+CD32+ LSEC-LCs” value (arterial and venous ECs; 4-day application under hypoxic conditions, by day 16) is on record?
The value was “highly efficient conversion”.

And the CD32 protein (arterial and venous ECs; CD31+LYVE1+ arterial ECs under elevated oxygen conditions, increasing doses, days 12-16)?
Its CD32 protein is “dose dependant upregulation”.

What about the “FCGR2B and F8 expression” value (arterial and venous ECs; [4]) of the same molecule?
Its value is “upregulated”.

What about the LYVE1 expression (arterial and venous ECs; [4]) of the same molecule?
Its LYVE1 expression is “significantly downregulated”.

And the STAB2 expression (arterial and venous ECs; [4])?
Its STAB2 expression is “did not change”.

`NC(=O)c1ccc(-c2nc(-c3ccc4c(c3)OCO4)c(-c3ccccn3)[nH]2)cc1` [SB431542, 4-(4-(benzo[d][1,3]dioxol-5-yl)-5-(pyridin-2-yl)-1H-imidazol-2-yl)benzamide] was tested. Which “expression of LSEC associated markers (LYVE1, STAB2, FCGR2B, F8)” value [1] did it give?
The value was “induced the expression of STAB2 and FCGR2B but not LYVE1”.

How did the induction of fenestrations ([2]; HUVECs and extended culture venous LSEC-LCs) turn out when `C/C1=C/C(=O)O[C@@H]2C[C@@H](CC[C@H](C)/C=C\C=C\CC1)O[C@@](O)([C@@H]1CSC(=O)N1)C2` [latrunculin A] was run?
The induction of fenestrations was “nor were they able to be induced to form fenestrations”.

What about the “cell surface covered by stimulated fenestrations” value [2, 5] of the same molecule?
Its value is “approximately 40%”.

And the “size of the fenestration type that accounts for the increase” value [2, 5]?
The value was roughly 60 nm.

Which “bias of CD34+ cells to arterial or venous subpopulation” value ([3]; 100 ng/ml VEGF, 5 ng/ml bFGF, day 6) does the source give for VEGF here?
Its value is “predominantly CD184^+CD73^low arterial-like population”.

What about the “frequency of CD34+ cells” value ([3]; VEGF 0 to 100 ng/ml added to day 4 cultures with 5 ng/ml bFGF, day 6) of the same molecule?
The value was “significant and dose dependant increase”.

Which “size of the CD34+CD184+CD73low subpopulation” value [3, 6] does the source give for “bFGF: bFGF (also referred to as FGF2), growth factor” here?
The value was “decrease”.

And the “size of the CD34+CD184-CD73- subpopulation” value [3, 6]?
The value was “increase”.

What about the “size of the total CD34+ population” value [3, 6] of the same molecule?
Its value is “modest increase”.

B1: VEGFC: VEGFC growth factor, 0 or 100 ng/ml (protein, UniProt P49767 112-227, looked up)
Vascular endothelial growth …: AHYNTEILKSIDNEWRKTQCMPREVCIDVGKEFGVATNTFFKPPCVSVYRCGGCCNSEGLQCMNTSTSYLSKTLFEITVPLSQGPKPVTISFANHTSCRCMSKLDVYRQVHSIIRR
How did the “expression of lymphatic markers PROX1 and FLT4” value ([1]; VEGFC 100 ng/ml, 4 days, RT-qPCR) turn out when B1 was run?
Its value is “increased”.

What about the “expression of LSEC associated markers (LYVE1, STAB2, FCGR2B, F8)” value [1] of the same molecule?
Its value is “modestly enhance the expression of some LSEC markers”.
